{
  "source": "patent US20040192554A1",
  "about": "“Technique for effectively treating an agricultural product with a 1-substituted-cyclopropene” (priority 2003, published 2004)",
  "test_system": "Japanese pear (variety \"Shinsei\") fruit",
  "assay": "Quality deterioration of Japanese pear (Shinsei) fruit after storage, Example 1",
  "assay_type": "in vivo",
  "conditions": "1 ppm, after storage 25 degrees C 2 weeks",
  "experimental": "Using a Japanese pear (variety “Shinsei”) fruit (6 fruits were used per group) as an agricultural product, the following experiment was preformed.\n1) A fruit and 1-methylcyclopropene (concentration 1 ppm (parts per million) in a chamber) were placed into a sealed chamber (volume 30L, same in the following Examples), and contact-treated for 1 hour or 16 hours under a normal pressure.\n2) A fruit was placed into a sealed chamber, and a pressure in the chamber was reduced to 12.5 kPa. Subsequently, 1-methylcyclopropene was placed therein to the concentration in the chamber of 1 ppm, and contact-treated for 30 minutes or 1 hour under the reduced pressure (12.5 kPa).\nThe fruit which had been subjected to treatment of above-mentioned 1) or 2) was stored at 25 degrees C for 2 weeks, and hardness of flesh and pH of a fruit juice which is an index for the content of an acid were measured. In addition, browning of flesh and fruit core, which is an index for an extent of storage disorder was assessed by naked eyes. Contact treatment of the above-mentioned 1) or 2) was performed on a day of harvesting a fruit. In addition, also regarding a fruit undergoing no treatment of 1) or 2) (non-treatment), similar storage was performed, and the above-mentioned index was measured and assessed. Further, regarding non-treated fruit, the above-mentioned index before storage was also measured and assessed. Different alpha characters in Table indicate that a significant difference was recognized at a risk rate of 5% (multiple range test of Newman-Keuls). In Tables showing the results of the following Examples 1 to 10, “1-MCP” denotes 1-methylcyclopropene.",
  "key": {"[1]": {"conditions": "Reduced pressure (12.5 kPa) 30 minutes"}, "[2]": {"conditions": "Reduced pressure (12.5 kPa) 1 hour"}},
  "data": [
    {"smiles": "CC1=CC1", "note": "[1-MCP, 1-methylcyclopropene]", "values": [
      {"measurement": "Hardness of flesh", "setting": "Normal pressure 1 hour", "result": 16.46, "unit": "a N"},
      {"measurement": "Presence or absence of browning", "setting": "Normal pressure 1 hour", "result": "Presence"},
      {"measurement": "pH of fruit juice", "setting": "Normal pressure 1 hour", "result": 5.07},
      {"measurement": "Hardness of flesh", "setting": "Normal pressure 16 hours", "result": 21.17, "unit": "b N"},
      {"measurement": "Presence or absence of browning", "setting": "Normal pressure 16 hours", "result": "Absence"},
      {"measurement": "pH of fruit juice", "setting": "Normal pressure 16 hours", "result": 5.07},
      {"measurement": "Hardness of flesh", "setting": "[1]", "result": 20.58, "unit": "b N"},
      {"measurement": "Presence or absence of browning", "setting": "[1]", "result": "Slight"},
      {"measurement": "pH of fruit juice", "setting": "[1]", "result": 5.10},
      {"measurement": "Hardness of flesh", "setting": "[2]", "result": 20.97, "unit": "b N"},
      {"measurement": "Presence or absence of browning", "setting": "[2]", "result": "Absence"},
      {"measurement": "pH of fruit juice", "setting": "[2]", "result": 4.97}
    ]}
  ]
}
